From patent publication US20230382924A1, “MODULATORS OF CYSTIC FIBROSIS TRANSMEMBRANE CONDUCTANCE REGULATOR” (VERTEX PHARMACEUTICALS INCORPORATED, priority 2020, published 2023) come the findings set out here.

Where two headings read alike, the source gives them in different places.

The target of this assay is CFTR (Homo sapiens, UniProt P13569). The experiment in a line: Membrane Potential Dye, Enteroid Assay A. It counts as cell-based. The conditions noted are these: for EC50: read-out: Ent. A EC50. On the procedure: Base medium (ADF+++) consisted of Advanced DMEM/Ham's F12, 2 mM Glutamax, 10 mM HEPES, […] penicillin/streptomycin.
Sequence of CFTR (P13569 with tags, fused parts or gaps DEL508-508): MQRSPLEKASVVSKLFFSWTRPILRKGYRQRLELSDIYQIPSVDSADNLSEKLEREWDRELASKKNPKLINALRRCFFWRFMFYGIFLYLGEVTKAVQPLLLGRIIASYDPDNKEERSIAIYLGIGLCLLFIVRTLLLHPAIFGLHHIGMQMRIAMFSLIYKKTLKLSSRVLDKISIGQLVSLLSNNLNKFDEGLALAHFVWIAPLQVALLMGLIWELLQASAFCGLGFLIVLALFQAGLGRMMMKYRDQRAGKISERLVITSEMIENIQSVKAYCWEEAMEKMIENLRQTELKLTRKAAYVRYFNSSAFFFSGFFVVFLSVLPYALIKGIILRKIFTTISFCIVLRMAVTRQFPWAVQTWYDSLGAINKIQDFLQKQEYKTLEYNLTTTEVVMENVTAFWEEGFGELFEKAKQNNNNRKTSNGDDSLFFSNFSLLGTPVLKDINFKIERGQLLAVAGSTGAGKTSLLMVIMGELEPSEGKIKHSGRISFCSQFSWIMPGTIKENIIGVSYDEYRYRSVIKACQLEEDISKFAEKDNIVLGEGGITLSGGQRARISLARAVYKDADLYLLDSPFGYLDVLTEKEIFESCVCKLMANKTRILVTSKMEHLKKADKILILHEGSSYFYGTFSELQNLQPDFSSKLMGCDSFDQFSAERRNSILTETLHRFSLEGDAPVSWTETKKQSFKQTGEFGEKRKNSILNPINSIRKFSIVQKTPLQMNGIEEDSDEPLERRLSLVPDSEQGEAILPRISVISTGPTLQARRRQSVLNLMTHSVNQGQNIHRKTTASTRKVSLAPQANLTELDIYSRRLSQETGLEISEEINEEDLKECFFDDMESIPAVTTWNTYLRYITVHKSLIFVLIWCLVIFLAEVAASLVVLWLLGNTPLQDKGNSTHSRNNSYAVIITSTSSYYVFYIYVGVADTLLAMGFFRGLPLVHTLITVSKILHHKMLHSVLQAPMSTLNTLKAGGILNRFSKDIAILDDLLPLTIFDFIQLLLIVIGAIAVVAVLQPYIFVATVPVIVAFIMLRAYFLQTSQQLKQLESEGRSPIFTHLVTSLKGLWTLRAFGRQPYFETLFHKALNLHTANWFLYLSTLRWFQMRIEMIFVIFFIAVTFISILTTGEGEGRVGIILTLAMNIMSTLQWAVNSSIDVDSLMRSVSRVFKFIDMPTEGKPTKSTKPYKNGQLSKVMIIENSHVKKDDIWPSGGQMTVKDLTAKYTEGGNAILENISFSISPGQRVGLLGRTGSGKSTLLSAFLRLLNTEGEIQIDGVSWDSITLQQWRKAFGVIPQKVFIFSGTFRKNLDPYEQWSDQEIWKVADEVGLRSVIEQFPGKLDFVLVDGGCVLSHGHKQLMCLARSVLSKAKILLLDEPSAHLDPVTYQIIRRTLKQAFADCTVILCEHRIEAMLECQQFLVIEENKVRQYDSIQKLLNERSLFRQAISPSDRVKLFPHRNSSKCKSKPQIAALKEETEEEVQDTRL
Bath 1 Buffer consisted of 1 mM MgCl2, 160 mM NaCl, 4.5 mM KCl, 10 mM HEPES, 10 mM Glucose, 2 mM CaCl2).
Chloride Free Buffer consisted of 1 mM Magnesium Gluconate, 2 mM Calcium Gluconate, 4.5 mM Potassium Gluconate, 160 mM Sodium Gluconate, 10 mM HEPES, 10 mM Glucose.
Bath 1 Dye Solution consisted of Bath 1 Buffer, 0.04% Pluronic F127, 20 μM Methyl Oxonol, 30 μM CaCCinh-A01, 30 μM Chicago Sky Blue.
Chloride Free Dye Solution consisted of Chloride Free Buffer, 0.04% Pluronic F127, 20 μM Methyl Oxonol, 30 μM CaCCinh-A01, 30 μM Chicago Sky Blue.
3. Enteroid Cell Harvesting and Seeding
Cells were recovered in cell recovery solution, collected by centrifugation at 650 rpm for 5 min at 4° C., resuspended in TryPLE and incubated for 5 min at 37° C. Cells were then collected by centrifugation at 650 rpm for 5 min at 4° C. and resuspended in IEMM containing 10 μM ROCK inhibitor (RI).
4. Membrane Potential Dye, Enteroid Assay A
Briefly, cells were washed 5 times in Bath 1 Buffer. Bath 1 Dye Solution was added, and the cells were incubated for 25 min at room temperature. Following dye incubation, cells were washed 3 times in Chloride Free Dye Solution. Chloride transport was initiated by addition of Chloride Free Dye Stimulation Solution and the fluorescence signal was read for 15 min. […] Chloride transport was then expressed as a percentage of the chloride transport following treatment with 3 μM N-[(6-amino-2-pyridyl)sulfonyl]-6-(3-fluoro-5-isobutoxy-phenyl)-2-[(4S)-2,2,4-trimethylpyrrolidin-1-yl]pyridine-3-carboxamide, 3 μM (R)-1-(2,2-difluorobenzo[d][1,3]dioxol-5-yl)-N-(1-(2,3-dihydroxypropyl)-6-fluoro-2-(1-hydroxy-2-methylpropan-2-yl)-1H-indol-5-yl)cyclopropanecarboxamide and 300 nM acute N-[2,4-bis(1,1-dimethylethyl)-5-hydroxyphenyl]-1,4-dihydro-4-oxoquinoline-3-carboxamide triple combination control (% Activity).

`Cc1cccc(C)c1-c1cc2nc(n1)NS(=O)(=O)c1cccc(c1)C(=O)N[C@H](CC1CCCCC1)[C@@H](c1ccc(C(C)(C)C)cc1)O2` [Compound 154]: where the note is “Table 8”, the “Ent. A Max Activity” value is on record as “+++ (+++ is >60%)” and the EC50 is less than 1000 nM.
For the compound `COC(=O)c1cc(CN2CCC3(CC2)CNC(=O)c2cccc(c2)S(=O)(=O)Nc2nc(cc(-c4c(C)cccc4C)n2)OC3)ccc1F` [Compound 437], where the note is “Enteroid Assay A”, the “Ent. A Max Activity” value is listed as “++ (++ is 30-60%)” and the concentration giving a half-maximal response (EC50) was 3000 to 30000 nM.
On to `COc1cccc(C)c1-c1cc2nc(n1)NS(=O)(=O)c1cccc(c1)C(=O)N[C@H](CC1CCCCC1)CO2` [Compound 303], for which, where the note is “Table 8”, the “Ent. A Max Activity” value is given as “+ (+ is <30%)” and the EC50 is less than 1000 nM.
For `Cc1cccc(C)c1-c1cc2nc(n1)NS(=O)(=O)c1cccc(c1)C(=O)NCC(Cc1ccc(C(C)(C)C)cc1)O2` (stereo not shown) [Compound 241], for the setting “Table 8”, the “Ent. A Max Activity” value was “+++ (+++ is >60%)” and the EC50 is less than 1000 nM.
For the compound `COc1ccc2c(c1)c(C(=O)N1CCC3(CC1)CNC(=O)c1cccc(c1)S(=O)(=O)Nc1nc(cc(-c4c(C)cccc4C)n1)OC3)c(C)n2C1CC1` [Compound 451], where the note is “Enteroid Assay A”, the “Ent. A Max Activity” value is on record as “++ (++ is 30-60%)” and the EC50 lay within 3000 to 30000 nM.
`Cc1cccc(C)c1-c1cc2nc(n1)NS(=O)(=O)c1cccc(c1)C(=O)N[C@@H](CC(C)(C)C)[C@H](C)O2` [Compound 130]: under “Table 9”, the “Ent. A Max Activity” value is “+++ (+++ is >60%)” and the EC50 was less than 1000 nM.
Consider `Cc1cccc(C)c1-c1cc2nc(n1)NS(=O)(=O)c1cccc(c1)C(=O)NCC1(CCN(C(=O)CC(C)(C)C)CC1)CO2` [Compound 481], for which the “Ent. A Max Activity” value (Enteroid Assay A) was “++ (++ is 30-60%)”.
As for `Cc1cccc(C)c1-c1cc2nc(n1)NS(=O)(=O)c1cccc(c1)C(=O)NCC(c1ccc(C34CC(C3)C4)cc1)O2` (stereo not shown) [Compound 397], under “Table 9”, the “Ent. A Max Activity” value was “+ (+ is <30%)” and the concentration giving a half-maximal response (EC50) lay within 3000 to 30000 nM.
Consider `Cc1cccc(C)c1-c1cc2nc(n1)NS(=O)(=O)c1cccc(c1)C(=O)NCC(c1ccc(C3(C(F)(F)F)CC3)cc1)O2` (single isomer, unassigned) [Compound 10, 6-(2,6-dimethylphenyl)-2,2-dioxo-10-[4-[1-(trifluoromethyl)cyclopropyl]phenyl]-9-oxa-2λ^6-thia-3,5,12,19-tetrazatricyclo[12.3.1.14,8]nonadeca-1(18),4(19),5,7,14,16-hexaen-13-one], for which the EC50 (Table 8) was less than 1000 nM.
For `Cc1cccc(C)c1-c1cc2nc(n1)NS(=O)(=O)c1ccccc1C(=O)NCC(c1ccc(C(C)(C)C)cc1)O2` (stereo not shown) [Compound 222], the “Ent. A Max Activity” value (Table 9) is recorded as “+ (+ is <30%)”.
As for `CC(C)C[C@@H]1COc2cc(-n3ccc(C(F)(F)F)n3)nc(n2)NS(=O)(=O)c2cccc(c2)C(=O)N1` [Compound 308], where the note is “Table 8”, the “Ent. A Max Activity” value is “+ (+ is <30%)”.
As for `Cc1cccc(C)c1-c1cc2nc(n1)NS(=O)(=O)c1cccc(c1)C(=O)NCC(C1CCN(C(=O)OC(C)(C)C)CC1)O2` (stereo not shown) [Compound 248], for the setting “Table 8”, the “Ent. A Max Activity” value is given as “+++ (+++ is >60%)” and the EC50 was less than 1000 nM.
Take `Cc1ccccc1[C@H]1CNC(=O)c2cccc(c2)S(=O)(=O)Nc2nc(cc(-c3c(C)cccc3C)n2)O1` (stereo in doubt) [Compound 277]: for the setting “Table 8”, the “Ent. A Max Activity” value is “+ (+ is <30%)”.
`Cc1cccc(Cc2ccccc2)c1-c1cc2nc(n1)NS(=O)(=O)c1cccc(c1)C(=O)N[C@H](CC(C)C)CO2` [Compound 168]: under “Table 9”, the “Ent. A Max Activity” value is given as “+++ (+++ is >60%)” and the EC50 was less than 1000 nM.
For the compound `Cc1cccc(C)c1-c1cc2nc(n1)NS(=O)(=O)c1cc(cc(C3CCOCC3)c1)C(=O)N[C@H](CC(C)C)CO2` [Compound 138], the “Ent. A Max Activity” value (Table 8) was “+ (+ is <30%)”.
As to `Cc1cccc(C)c1-c1cc2nc(n1)NS(=O)(=O)c1cccc(c1)C(=O)NC1(CCN(C(C)C)CC1)CO2` [Compound 175], for the setting “Table 9”, the “Ent. A Max Activity” value is reported as “+ (+ is <30%)” and the EC50 fell in the range of 3000 to 30000 nM.
For the compound `Cc1cccc(C)c1-c1cc2nc(n1)NS(=O)(=O)c1cccc(c1)C(=O)NCC(C1CCCCC1)O2` (stereo not shown) [Compound 281], where the note is “Table 8”, the “Ent. A Max Activity” value is given as “+++ (+++ is >60%)” and the EC50 was less than 1000 nM.
Consider `Cc1cccc(C)c1-c1cc2nc(n1)NS(=O)(=O)c1cccc(c1)C(=O)NCC(c1ccc(-c3ccccc3)cc1)O2` (stereo not shown) [Compound 231], for which the EC50 (Table 8) was less than 1000 nM.
Take `Cc1cccc(C)c1-c1cc2nc(n1)NS(=O)(=O)c1cccc(c1)C(=O)NCC(c1ccccc1C(C)(C)C)O2` (stereo not shown) [Compound 278]: the EC50 (Table 8) is less than 1000 nM.
Take `Cc1cccc(C)c1-c1cc2nc(n1)NS(=O)(=O)c1cccc(c1)C(=O)NCC1(CCCCC1)CO2` [Compound 205]: under “Enteroid Assay A”, the “Ent. A Max Activity” value is listed as “+++ (+++ is >600%)” and the EC50 is less than 1000 nM.
`Cc1cccc(C)c1-c1cc2nc(n1)NS(=O)(=O)c1cc(n(C)n1)C(=O)N[C@@H](CC1CCCCC1)CO2` [Compound 359]: the “Ent. A Max Activity” value (Table 8) is “+ (+ is <30%)”.
Take `CC(C)C[C@@H]1COc2cc(-c3ccnn3CC(C)C)nc(n2)NS(=O)(=O)c2cccc(c2)C(=O)N1` [Compound 102, (11R)-11-(2-Methylpropyl)-6-[1-(2-methylpropyl)-1H-pyrazol-5-yl]-9-oxa-2λ^6-thia-3,5,12,19-tetraazatricyclo[12.3.1.14,8]nonadeca-1(17),4(19),5,7,14(18),15-hexaene-2,2,13-trione]: where the note is “Enteroid Assay A”, the “Ent. A Max Activity” value is “++ (++ is 30-60%)” and the EC50 was in the range of 3000 to 30000 nM.
On to `Cc1cccc(C)c1-c1cc2nc(n1)NS(=O)(=O)c1cccc(c1)C(=O)N[C@@H]1Cc3ccccc3[C@@H]1O2` (stereo in doubt) [Compound 246], for which, under “Table 8”, the “Ent. A Max Activity” value is recorded as “+++ (+++ is >60%)” and the EC50 is less than 1000 nM.
For `Cc1cccc(C)c1-c1cc2nc(n1)NS(=O)(=O)c1cccc(c1)C(=O)NCC(Cc1ccc(C(C)(C)C)cc1)O2` (stereo not shown) [Compound 243], in that order: “+++ (+++ is >60%)” and less than 1000 nM.
As for `CC(C)C[C@@H]1COc2cc(C3=CC(C)CC3(C)C)nc(n2)NS(=O)(=O)c2cccc(c2)C(=O)N1` (stereo partly shown) [Compound 320], where the note is “Enteroid Assay A”, the “Ent. A Max Activity” value is on record as “++ (++ is 30-60%)” and the EC50 was less than 1000 nM.
Consider `CC(C)C[C@@H]1COc2cc(-n3nccc3C(C)C)nc(n2)NS(=O)(=O)c2cccc(c2)C(=O)N1` [Compound 307], for which, under “Table 8”, the “Ent. A Max Activity” value is “+ (+ is <30%)”.
As for `Cc1cccc(C)c1-c1cc2nc(n1)NS(=O)(=O)c1cccc(c1)C(=O)N[C@@H](CCC(F)(F)F)CO2` (stereo in doubt) [Compound 189], for the setting “Table 8”, the “Ent. A Max Activity” value is on record as “+ (+ is <30%)” and the EC50 lay within 1000 to 3000 nM.
For `Cc1cccc(C)c1-c1cc2nc(n1)NS(=O)(=O)c1cccc(c1)C(=O)N[C@@H](CC1CCC1)[C@@H](c1ccc(C(C)(C)C)cc1)O2` (stereo in doubt) [Compound 229], in that order: “+++ (+++ is >60%)” and less than 1000 nM.
For `Cc1cccc(C)c1-c1cc2nc(n1)NS(=O)(=O)c1cccc(c1)C(=O)N[C@H](CCC(F)(F)F)CO2` (stereo in doubt) [Compound 190], in that order: “+++ (+++ is >60%)” and less than 1000 nM.
In the case of `Cc1cccc(C)c1-c1cc2nc(n1)NS(=O)(=O)c1cccc(c1)C(=O)NC1CC(CN(C(=O)OCc3ccccc3)C1)O2` (stereo not shown) [Compound 200], under “Enteroid Assay A”, the “Ent. A Max Activity” value is recorded as “++ (++ is 30-60%)” and the 50% effective concentration (EC50) lay within 3000 to 30000 nM.
On to `Cc1cccc(C)c1-c1cc2nc(n1)NS(=O)(=O)c1cccc(c1)C(=O)N[C@H](CC1CCCCC1)[C@@H](C)O2` [Compound 144], for which, where the note is “Table 8”, the “Ent. A Max Activity” value was “+++ (+++ is >60%)” and the EC50 was less than 1000 nM.
Consider `Cc1cccc(C)c1-c1cc2nc(n1)NS(=O)(=O)c1cccc(c1)C(=O)NCC1(CCN(C(=O)c3cc4c(cc3O)CCCC4)CC1)CO2` [Compound 462], for which the “Ent. A Max Activity” value (Enteroid Assay A) is “++ (++ is 30-60%)”.
In the case of `Cc1cccc(C)c1-c1cc2nc(n1)NS(=O)(=O)c1cccc(c1)C(=O)N[C@@H](CC(C)C)CO2` [Compound 491], the EC50 (Enteroid Assay A) is 1000 to 3000 nM.
`Cc1cccc(C)c1-c1cc2nc(n1)NS(=O)(=O)c1cccc(c1)C(=O)NCC1(CCN(C(=O)CO[C@@H]3C[C@H](C)CC[C@H]3C(C)C)CC1)CO2` [Compound 468]: for the setting “Enteroid Assay A”, the “Ent. A Max Activity” value is “++ (++ is 30-60%)” and the EC50 was 1000 to 3000 nM.
With `Cc1cccc(C)c1-c1cc2nc(n1)NS(=O)(=O)c1cccc(c1)C(=O)N[C@@H]1CCN(Cc3ccc(C(C)(C)C)cc3)C[C@@H]1O2` (single isomer, unassigned) [Compound 91, 5-[(4-tert-butylphenyl)methyl]-20-(2,6-dimethylphenyl)-2-oxa-16λ^6-thia-5,9,17,19,22-pentaazatetracyclo[16.3.1.111,15.03,8]tricosa-1(21),11(23),12,14,18(22),19-hexaene-10,16,16-trione], for the setting “Table 9”, the “Ent. A Max Activity” value was “+++ (+++ is >60%)” and the EC50 is less than 1000 nM.
